Experimental data from US7163959B2, “Prostagladin derivatives for the treatment of glaucoma or ocular hypertension” (priority 1990, dated 2007).

Experiments:
cynomolgus monkeys = experiment: Intraocular pressure (pneumatonometer) in cynomolgus monkeys; assay type: in vivo, cynomolgus monkey; conditions: for Intraocular pressure, time after administration 0 hours / Intraocular pressure, time after administration 1–2 hours / Intraocular pressure, time after administration 3–4 hours / Intraocular pressure, time after administration 6 hours: cynomolgus monkeys, experimental eye (E), topical, dose μg: PGF2α-IE 1.5, (1) 3.2, (2) 3.2, (9) 10.4, (10) 3.1, (8) 3.2; for Intraocular pressure, time after administration 0 hours: baseline; for Intraocular pressure lowering effect, in words: monkeys (primates), topical (Table V)
Experimental: (§1) The intraocular pressur (IOP) was determined in animals with a pneumatonometer (Digilab Modular One™, Bio Rad), specially calibrated for the eye of the particular species. The cornea was anaesthetized with 1–2 drops of oxibuprocain before each XOP measurement. In healthy human volunteers IOP was measured with applanation tonometry or with an air puff tonometer (Keeler pulsair). For applanation tonometry either a pneumatonometer (Digilab) or Goldmann's applanation tonometer mounted on a slit lamp microscope was used. The cornea was anaesthetized with oxibuprocain before each measurement with applanation tonometry. No local anaesthesia was employed before measurement with the pulsair tonometer.

rabbit eye = experiment: Conjunctival hyperemia after topical application in rabbits; assay type: in vivo; conditions: for Degree of hyperemia: topical, conjunctival hyperemia scale 0 to 4, dose 0.5 μg, PGF2α-IE 0.1 μg; for Conjunctival hyperemia, in words: topical (Table IV)
Experimental: Conjunctival hyperemia after topical application of the test substances was evaluated in rabbits. […] Conjunctival hyperemia was evaluated on a scale from 0 to 4, 0 indicating complete absence of any hyperemia, and 4 indicating marked hyperemia with conjunctival chemosis.

cat eye = experiment: Ocular discomfort (irritation) after topical application in cats; conditions: topical (Table III)
Experimental: The ocular discomfort after application of the test substances was evaluated in cats. The behaviour of cats after topical application of the test drug was followed and ocular discomfort was graded on a scale from 0 to 3, 0 indicating complete absence of any signs of discomfort, and 3 indicating maximal irritation as obvious from complete lid closure.
Therefore, the cat eye, being very sensitive to prostaglandins was used for evaluating ocular discomfort and the rabbit eye with pronounced tendency to hyperemic reactions was used for evaluating conjunctival and episcleral hyperemia.

healthy human volunteers [1] = experiment: Intraocular pressure (tonometry) in healthy human volunteers; assay type: in vivo; conditions: for Effect on intraocular pressure, in words: healthy human volunteers (Table VI); for Intraocular pressure, time after administration 0 hours / Intraocular pressure, time after administration 4 hours / Intraocular pressure, time after administration 6 hours / Intraocular pressure, time after administration 8 hours: healthy human volunteers, Exp eye, dose μg: (2) 1, (7) 10, (9) 1, (10) 5; for Intraocular pressure, time after administration 0 hours: baseline; for Intraocular pressure, time after administration 0 hours / Intraocular pressure, time after administration 4 hours / Intraocular pressure, time after administration 6 hours: (3) 10
Experimental: as §1

healthy human volunteers [2] = experiment: Ocular side effects (discomfort, hyperemia) in healthy human volunteers; conditions: for Irritating effect (ocular discomfort), in words: healthy human volunteers; for Conjunctival/episcleral hyperemia, in words: in man
cat eyes = experiment: Intraocular pressure (pneumatonometer) in cats; assay type: in vivo; conditions: for Intraocular pressure, time after administration 0 hours / Intraocular pressure, time after administration 1–2 hours / Intraocular pressure, time after administration 3–4 hours / Intraocular pressure, time after administration 6 hours: cat eyes, experimental eye (E), topical, dose μg: (4) 5, (20) 1; for Intraocular pressure, time after administration 0 hours: baseline; for Intraocular pressure lowering effect, in words: cats, topical (Table V)
Experimental: as §1

monkey = conditions: compounds or their esters, Bito et al, 1989; cited from earlier work
man = conditions: clinical studies, Flach and Eliason (1988); cited from earlier work

| Molecule | Intraocular pressure, time after administration 0 hours (cynomolgus monkeys) | Intraocular pressure, time after administration 1–2 hours (cynomolgus monkeys) | Intraocular pressure, time after administration 3–4 hours (cynomolgus monkeys) | Intraocular pressure, time after administration 6 hours (cynomolgus monkeys) | Degree of hyperemia (rabbit eye) | Effect on intraocular pressure, in words (healthy human volunteers [1]) | Intraocular pressure, time after administration 0 hours (healthy human volunteers [1]) | Intraocular pressure, time after administration 4 hours (healthy human volunteers [1]) | Intraocular pressure, time after administration 6 hours (healthy human volunteers [1]) | Irritating effect (ocular discomfort), in words (healthy human volunteers [2]) | other results |
| --- | --- | --- | --- | --- | --- | --- | --- | --- | --- | --- | --- |
| 16-[4-(methoxy)-phenyl]-17,18,19,20-tetranor-PGF2α-isopropylester [Substance 8] | E 11.2 ± 0.9 mmHg | 10.5 ± 1.3 mmHg | 9.8 ± 1.4 mmHg | 9.2 ± 0.9 mmHg |  |  |  |  |  |  |  |
| 16-phenyl-17,18,19,20-tetranor-PGF2α-isopropylester [Substance 1] | E 12.7 ± 1.1 mmHg | 11.8 ± 1.1 mmHg | 9.1 ± 0.8 mmHg | 8.4 ± 0.7. mmHg | 1.3 ± 0.9 |  |  |  |  |  | Intraocular pressure lowering effect, in words (cynomolgus monkeys): reduced the intraocular pressure; Ocular irritation (discomfort), in words (cat eye): irritating; Ocular irritation (discomfort), in words (cat eye; listed as 16-phenyl-17,18,19,20-tetranor-PGF2α-IE): clear ocular discomfort |
| 18-phenyl-19,20-dinor-PGF2α-isopropylester [Substance 10] | E 9.7 ± 0.9 mmHg | 9.6 ± 1.1 mmHg | 9.6 ± 0.7 mmHg | 8.8 ± 0.9 mmHg |  | significantly reduced the intraocular pressure | 14.4 ± 1.0 mmHg | 12.2 ± 1.1 mmHg | 12.4 ± 1.2 mmHg | none of the compounds had any significant irritating effect | Intraocular pressure lowering effect, in words (cynomolgus monkeys): reduced the intraocular pressure; Intraocular pressure, time after administration 8 hours (healthy human volunteers [1]): 11.9 ± 0.7 mmHg |
| 19-phenyl-20-nor-PGF2α-isopropylester [Substance 20] |  |  |  |  |  |  |  |  |  |  | Intraocular pressure, time after administration 0 hours (cat eyes): E 16.9 ± 1.0 mmHg; Intraocular pressure, time after administration 1–2 hours (cat eyes): 16.6 ± 0.7 mmHg; Intraocular pressure, time after administration 3–4 hours (cat eyes): 15.8 ± 0.8 mmHg; Intraocular pressure, time after administration 6 hours (cat eyes): 18.1 ± 1.2 mmHg; Intraocular pressure lowering effect, in words (cat eyes): reduced the intraocular pressure |
| CCCCCC(C=CC1C(O)CC(=O)C1CC=CCCCC(=O)OC(C)C)OC(=O)CC (stereo not shown) [15-propionate-PGE2-IE, reference compound] |  |  |  |  | 2.7 ± 0.3 |  |  |  |  |  |  |
| CCCCC[C@H](O)/C=C/[C@H]1C=CC(=O)[C@@H]1C/C=C\CCCC(=O)O [PGA2] |  |  |  |  |  |  |  |  |  |  | IOP effect, in words (monkey): lower IOP |
| CCCCC[C@H](O)/C=C/[C@H]1[C@H](O)CC(=O)[C@@H]1C/C=C\CCCC(=O)O [PGE2] |  |  |  |  |  |  |  |  |  |  | IOP effect, in words (monkey): lower IOP; IOP effect, in words (man): IOP-lowering effect |
| CCCCC[C@H](O)/C=C/[C@@H]1[C@@H](C/C=C\CCCC(=O)OC(C)C)[C@@H](O)C[C@H]1O [PGF2α-isopropylester, reference compound] | E 11.4 ± 0.7 mmHg | 8.3 ± 0.5 mmHg | 8.0 ± 0.6 mmHg | 9.3 ± 0.8 mmHg | 2.8 ± 0.2 |  |  |  |  |  |  |
| CC(C)OC(=O)CCC/C=C\C[C@@H]1[C@@H](/C=C/[C@@H](O)CCc2ccccc2)[C@H](O)C[C@@H]1O [Substance 2, 17-phenyl-18,19,20-trinor-PGF2α-isopropylester] | E 12.8 ± 0.6 mmHg | 11.9 ± 0.5 mmHg | 8.6 ± 0.3 mmHg | 9.5 ± 0.7 mmHg | 2.0 ± 0.3 | significantly reduced the intraocular pressure | 11.9 ± 1.7 mmHg | 11.0 ± 0.9 mmHg | 10.1 ± 0.7 mmHg | none of the compounds had any significant irritating effect | Intraocular pressure lowering effect, in words (cynomolgus monkeys): retained IOP lowering effect; Intraocular pressure, time after administration 8 hours (healthy human volunteers [1]): 9.8 ± 0.7 mmHg; Ocular irritation (discomfort), in words (cat eye): complete loss of ocular irritation |
| CC(C)OC(=O)CCC/C=C\C[C@@H]1[C@@H](/C=C/C(=O)CCc2ccccc2)[C@H](O)C[C@@H]1O [Substance 3, 15-dehydro-17-phenyl-18,19,20-trinor-PGF2α-isopropylester] |  |  |  |  | 0.7 ± 0.3 | significantly reduced the intraocular pressure | 17.7 ± 0.6 mmHg | 14.6 ± 0.2 mmHg | 13.6 ± 0.7 mmHg | none of the compounds had any significant irritating effect | Conjunctival hyperemia, in words (rabbit eye): advantageous in this respect; Conjunctival/episcleral hyperemia, in words (healthy human volunteers [2]): very little if any conjunctival/episcleral hyperemia |
| CC(C)OC(=O)CCC/C=C\C[C@@H]1[C@@H](/C=C/[C@@H](O)COc2ccccc2)[C@H](O)C[C@@H]1O [Substance 4, 16-phenoxy-17,18,19,20-tetranor-PGF2α-isopropylester] |  |  |  |  |  |  |  |  |  |  | Intraocular pressure, time after administration 0 hours (cat eyes): E 20.5 ± 1.2 mmHg; Intraocular pressure, time after administration 1–2 hours (cat eyes): 25.7 ± 1.2 mmHg; Intraocular pressure, time after administration 3–4 hours (cat eyes): 19.2 ± 1.8 mmHg; Intraocular pressure, time after administration 6 hours (cat eyes): 15.0 ± 1.2 mmHg; Intraocular pressure lowering effect, in words (cat eyes): effectively lowers the intraocular pressure |
| CC(C)OC(=O)CCC/C=C\C[C@H]1C(=O)C[C@@H](O)[C@@H]1/C=C/[C@@H](O)CCc1ccccc1 [Substance 5, 17-phenyl-18,19,20-trinor-PGE2-isopropylester] |  |  |  |  | 2.7 ± 0.2 |  |  |  |  |  | Ocular irritation (discomfort), in words (cat eye): no or very little irritating effect |
| CC(C)OC(=O)CCC/C=C\C[C@H]1C(=O)C=C[C@@H]1CC[C@@H](O)CCc1ccccc1 [Substance 6, 13,14-dihydro-17-phenyl-18,19,20-trinor-PGA2-isopropylester] |  |  |  |  | 0.3 ± 0.3 |  |  |  |  |  | Conjunctival hyperemia, in words (rabbit eye): advantageous in this respect; Ocular irritation (discomfort), in words (cat eye): no or very little irritating effect |
| CC(C)OC(=O)CCC/C=C\C[C@@H]1[C@@H](/C=C/[C@H](O)CCc2ccccc2)[C@H](O)C[C@@H]1O [Substance 7, 15-(R)-17-phenyl-18,19,20-trinor-PGF2α-isopropylester] |  |  |  |  | 2.0 ± 0.0 | significantly reduced the intraocular pressure | 12.9 ± 0.9 mmHg | 11.8 ± 0.6 mmHg | 11.0 ± 0.3 mmHg | none of the compounds had any significant irritating effect | Intraocular pressure, time after administration 8 hours (healthy human volunteers [1]): 11.2 ± 1.3 mmHg |
| CC(C)OC(=O)CCC/C=C\C[C@@H]1[C@@H](CC[C@@H](O)CCc2ccccc2)[C@H](O)C[C@@H]1O [Substance 9, 13,14-dihydro-17-phenyl-18,19,20-trinor-PGF2α-isopropylester] | E 11.1 ± 0.9 mmHg | 8.3 ± 0.6 mmHg | 6.9 ± 0.4 mmHg | 7.7 ± 0.8 mmHg | 1.3 ± 0.3 | significantly reduced the intraocular pressure | 14.2 ± 0.5 mmHg | 13.3 ± 1.1 mmHg | 12.2 ± 0.4 mmHg | none of the compounds had any significant irritating effect | Conjunctival hyperemia, in words (rabbit eye): advantageous in this respect; Intraocular pressure, time after administration 8 hours (healthy human volunteers [1]): 12.5 ± 0.9 mmHg; Conjunctival/episcleral hyperemia, in words (healthy human volunteers [2]): very little if any conjunctival/episcleral hyperemia |
